Assay results reported in patent US6201129A, “Tricyclic derivatives and their use as anti-cancer agents” (Univ. College Cardiff Consultants, priority 1997, dated 2001).

Tested on: HT1080scc2 (clone of human fibrosarcoma cell-line HT1080)
Assay: Cell proliferation/cytotoxicity assay, methylene blue biomass staining
Format: cell-based
Settings: HT-1080, HT1080scc2 cells, 1×10^3 cells per well, compound added day 1, further 4 days at 37° C., methylene blue staining read at 620 nm
Method: Compounds of the general formula (I) have been tested against two specially developed cell lines which are clones of the human fibrosarcoma cell-line HT1080. One clone HT1080scc2, retains the transformed phenotype of the parental line, whilst the other, HT10801c, is a morphologically flat, non-tumourigenic, revertant.
Assays for cell proliferation/cytotoxity were carried out in tissue culture grade 96 well microtitre plates (Costar). Cells in log growth were added to the plates at a concentration of 1×10^3 cells per well on day 0 and serially diluted compounds were then added on day 1. Plates were then incubated at 37° C. in 5% CO2 in air for a further 4 days.
For quantitation of cell growth, the methylene blue biomass staining method was used, the test being read on a Multiscan plate reader at wavelength of 620 nm. The morphology of the cells was checked microscopically under phase-contrast immediately before the fixation and staining with methylene blue, and by ordinary light microscopy thereafter. IC50 values for active compounds were obtained using the computer programme, GS1 and dose-response slopes were also plotted.

| SMILES | IC50 [µM] |
| --- | --- |
| CCOC(=O)c1[nH]c2cc3c(C(=O)OCC)c(C)[nH]c3c(C)c2c1C [Example 1, Diethyl 1,5-dihydro-3,4,6-trimethylpyrrolo[2,3-f]indole-2,7-dicarboxylate] | 100 |
| CCOC(=O)c1[nH]c2cc3[nH]c(C)cc3c(C)c2c1C [Example 2, Ethyl 1,7-dihydro-3,4,6-trimethylpyrrolo[3,2-f]indole-2-carboxylate] | 3 |
